Test [1] addresses T1, Estrogen Receptor (ERα) in MCF-7 human ductal carcinoma breast cell line (Homo sapiens, UniProt P03372).
T1 construct: endogenous in cells; host or cells: MCF-7
T1 sequence (P03372 1-595): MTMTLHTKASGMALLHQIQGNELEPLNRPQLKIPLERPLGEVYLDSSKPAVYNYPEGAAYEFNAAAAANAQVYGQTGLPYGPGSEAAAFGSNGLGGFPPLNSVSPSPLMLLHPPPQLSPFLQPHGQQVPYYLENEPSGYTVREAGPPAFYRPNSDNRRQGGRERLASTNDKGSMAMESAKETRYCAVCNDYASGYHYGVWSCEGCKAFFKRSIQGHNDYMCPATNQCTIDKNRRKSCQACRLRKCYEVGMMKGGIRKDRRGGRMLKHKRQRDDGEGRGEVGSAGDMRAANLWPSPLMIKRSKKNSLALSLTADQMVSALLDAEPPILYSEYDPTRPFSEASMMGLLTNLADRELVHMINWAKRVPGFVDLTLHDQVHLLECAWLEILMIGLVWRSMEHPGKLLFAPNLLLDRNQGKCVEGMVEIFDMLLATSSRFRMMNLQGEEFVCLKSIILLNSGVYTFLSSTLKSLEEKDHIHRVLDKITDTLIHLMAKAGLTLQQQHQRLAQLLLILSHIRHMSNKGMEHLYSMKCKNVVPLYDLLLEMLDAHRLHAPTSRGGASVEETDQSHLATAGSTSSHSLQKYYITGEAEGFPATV
Description: MCF-7 ER degradation assay (cell based immuno-fluorescence). The following applies: MCF-7 cells; for DC50: 18-22 hours incubation, 50% reduction of ERα expression, single experiment or average of two or more, read-out: MCF-7 ER degradation IC50; for ER degradation ≥ 90% at 0.3 μM: ER degradation by fulvestrant at 0.3 μM is defined as 100%. The method in brief: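 MCF-7 human ductal carcinoma breast cells were seeded at 3.75×10^4 cells per mL (40 μL per well) in 384 well plates with phenol red free DMEM containing 2 mM L-Glutamine and 5% (v/v) Charcoal/Dextran treated foetal calf serum. After overnight culture, compounds were acoustically dispensed, incubated 18-22 hours, then cells were formaldehyde-fixed and immunostained for ERα.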

For test [2], the target named is T2, recombinant human Estrogen Receptor alpha ligand binding domain, residues 307-554 (ER alpha-LBD (GST)) (Homo sapiens, UniProt P03372).
T2 construct: made in house
T2 sequence (P03372 307-554): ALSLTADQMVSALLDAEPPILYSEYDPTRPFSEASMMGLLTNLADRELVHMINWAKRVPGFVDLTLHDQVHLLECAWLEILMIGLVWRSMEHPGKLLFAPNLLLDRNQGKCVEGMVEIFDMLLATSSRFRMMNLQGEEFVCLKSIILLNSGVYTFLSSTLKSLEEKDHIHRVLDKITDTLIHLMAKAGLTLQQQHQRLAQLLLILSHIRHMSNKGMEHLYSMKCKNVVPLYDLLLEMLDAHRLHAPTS
Kind of test: ERα binding assay (LanthaScreen TR-FRET competition). The following applies: TR-FRET competition with Fluormone ES2 tracer, 4 hours at room temperature; single experiment or average of two or more. As to the method: The ability of compounds to bind to isolated Estrogen Receptor Alpha Ligand binding domain (ER alpha-LBD (GST)) was assessed in competition assays using a LanthaScreen™ Time-Resolved Fluorescence Resonance Energy Transfer (TR-FRET) detection end-point. For the LanthaScreen TR-FRET endpoint, a suitable fluorophore (Fluormone ES2, ThermoFisher, Product code P2645) and recombinant human Estrogen Receptor alpha ligand binding domain, residues 307-554 (expressed and purified in-house) were used to measure compound binding. The assay principle is that ER alpha-LBD (GST) is added to a fluorescent ligand to form a receptor/fluorophore complex. A terbium-labelled anti-GST antibody (Product code PV3551) is used to indirectly label the receptor by binding to its GST tag, and competitive binding is detected by a test compound's ability to displace the fluorescent ligand, resulting in a loss of TR-FRET signal between the Tb-anti-GST antibody and the tracer. The assay was performed as follows with all reagent additions carried out using the Beckman Coulter BioRAPTR FRD microfluidic workstation: • 1. Acoustic dispense 120 nL of the test compound into a black low volume 384 well assay plates. • 2. Prepare 1×ER alpha-LBD/Tb-antiGST Ab in ES2 screening buffer and incubate for 15 minutes. • 3. Dispense 6 μL of the […] reagent into each well of the assay plate followed by 6 μL of Fluorophore reagent into each well of the assay plate • 4. Cover the assay plate to protect the reagents from light and evaporation, and incubate at room temperature for 4 hours. • 5. Excite at 337 nm and measure the fluorescent emission signal of each well at 490 nm and 520 nm using the BMG PheraSTAR.
Compounds were dosed directly from a compound source microplate containing serially diluted compound (4 wells containing 10 mM, […] and 10 nM final compound respectively) to an assay microplate using the Labcyte Echo 550. The Echo 550 is a liquid handler that uses acoustic technology to perform direct microplate-to-microplate transfers of DMSO compound solutions and the system can be programmed to transfer multiple small nL volumes of compound from the different source plate wells to give the desired serial dilution of compound in the assay which is then back-filled to normalise the DMSO concentration across the dilution range.
In total 120 nL of compound plus DMSO were added to each well and compounds were tested in a 12-point concentration response format over a final compound concentration range of 10, 2.917, 1.042, 0.2083, 0.1, 0.0292, 0.0104, 0.002083, 0.001, 0.0002917, 0.0001042, and 0.00001 μM respectively. TR-FRET dose response data obtained with each compound was exported into a suitable software package (such as Origin or Genedata) to perform curve fitting analysis. Competitive ER alpha binding was expressed as an IC50 value. This was determined by calculation of the concentration of compound that was required to give a 50% reduction in tracer compound binding to ER alpha-LBD.
(In TR-FRET formats the signal depends on donor and acceptor labels being close together.)

pIC50: −log10 of the molar value.

The term pIC50 denotes −log10 of the IC50, conventionally taken in molar units. With `Cc1ncsc1-c1ccc(CNC(=O)[C@@H]2C[C@@H](O)CN2C(=O)[C@@H](NC(=O)CCOCCCCOc2cc(F)c([C@@H]3c4[nH]c5ccccc5c4C[C@@H](C)N3CC(C)(C)F)c(F)c2)C(C)(C)C)cc1` [Example 92, (2S,4R)-1-((S)-2-(3-(4-(3,5-difluoro-4-((1R,3R)-2-(2-fluoro-2-methylpropyl)-3-methyl-2,3,4,9-tetrahydro-1H-pyrido[3,4-b]indol-1-yl)phenoxy)butoxy)propanamido)-3,3-dimethylbutanoyl)-4-hydroxy-N-(4-(4-methylthiazol-5-yl)benzyl)pyrrolidine-2-carboxamide], the DC50 in test [1] was 0.4 nM. In addition, the pIC50 in test [2] was 9.22.
The corresponding values for `Cc1ncsc1-c1ccc(CNC(=O)[C@@H]2C[C@@H](O)CN2C(=O)[C@@H](NC(=O)CNCCCCCOc2cc(F)c([C@@H]3c4[nH]c5ccccc5c4C[C@@H](C)N3CC(C)(C)F)c(F)c2)C(C)(C)C)cc1` [Example 89, (2S,4R)-1-((S)-2-(2-((5-(3,5-Difluoro-4-((1R,3R)-2-(2-fluoro-2-methylpropyl)-3-methyl-2,3,4,9-tetrahydro-1H-pyrido[3,4-b]indol-1-yl)phenoxy)pentyl)amino)acetamido)-3,3-dimethylbutanoyl)-4-hydroxy-N-(4-(4-methylthiazol-5-yl)benzyl)pyrrolidine-2-carboxamide] are 0.7 nM and 9.15.
For the compound `Cc1ncsc1-c1ccc(CNC(=O)[C@@H]2C[C@@H](O)CN2C(=O)[C@@H](NC(=O)COCCOCCOCCOc2cc(F)c([C@@H]3c4[nH]c5ccccc5c4C[C@@H](C)N3C[C@H](C)C(=O)O)c(F)c2)C(C)(C)C)cc1` [Example 30, (S)-3-((1R,3R)-1-(2,6-Difluoro-4-(((S)-13-((2S,4R)-4-hydroxy-2-((4-(4-methylthiazol-5-yl)benzyl)carbamoyl)pyrrolidine-1-carbonyl)-14,14-dimethyl-11-oxo-3,6,9-trioxa-12-azapentadecyl)oxy)phenyl)-3-methyl-1,3,4,9-tetrahydro-2H-pyrido[3,4-b]indol-2-yl)-2-methylpropanoic Acid], the DC50 in test [1] was 174 nM. Also, in test [2], the pIC50 was 8.39.
For the compound `Cc1ncsc1-c1ccc(CNC(=O)[C@@H]2C[C@@H](O)CN2C(=O)[C@@H](NC(=O)COCCCOCCCOc2cc(F)c([C@@H]3c4[nH]c5ccccc5c4C[C@@H](C)N3CC(C)(C)F)c(F)c2)C(C)(C)C)cc1` [Example 72, (2S,4R)-1-((S)-2-(2-(3-(3-(3,5-Difluoro-4-((1R,3R)-2-(2-fluoro-2-methylpropyl)-3-methyl-2,3,4,9-tetrahydro-1H-pyrido[3,4-b]indol-1-yl)phenoxy)propoxy)propoxy)acetamido)-3,3-dimethylbutanoyl)-4-hydroxy-N-(4-(4-methylthiazol-5-yl)benzyl)pyrrolidine-2-carboxamide], in test [1], the “ER degradation ≥ 90% at 0.3 μM” value was “••”. Further, in test [2], the pIC50 was 9.22.
Consider `Cc1ncsc1-c1ccc(CNC(=O)[C@@H]2C[C@@H](O)CN2C(=O)[C@@H](N(C)C(=O)COCCOCCOCCOc2cc(F)c([C@@H]3c4[nH]c5ccccc5c4C[C@@H](C)N3CC(C)(C)F)c(F)c2)C(C)(C)C)cc1` [Example 31, (2S,4R)-1-((S)-2-(tert-Butyl)-14-(3,5-difluoro-4-((1R,3R)-2-(2-fluoro-2-methylpropyl)-3-methyl-2,3,4,9-tetrahydro-1H-pyrido[3,4-b]indol-1-yl)phenoxy)-3-methyl-4-oxo-6,9,12-trioxa-3-azatetradecanoyl)-4-hydroxy-N-(4-(4-methylthiazol-5-yl)benzyl)pyrrolidine-2-carboxamide], for which, in test [1], the DC50 turned out to be 0.3 nM. Further, the pIC50 in test [2] was 9.22.
The corresponding values for `Cc1ncsc1-c1ccc(CNC(=O)[C@@H]2C[C@@H](O)CN2C(=O)[C@@H](NC(=O)CCCCCNCCCCOc2cc(F)c([C@@H]3c4[nH]c5ccccc5c4C[C@@H](C)N3CC(C)(C)F)c(F)c2)C(C)(C)C)cc1` [Example 145, (2S,4R)-1-((S)-2-(6-((4-(3,5-Difluoro-4-((1R,3R)-2-(2-fluoro-2-methylpropyl)-3-methyl-2,3,4,9-tetrahydro-1H-pyrido[3,4-b]indol-1-yl)phenoxy)butyl)amino)hexanamido)-3,3-dimethylbutanoyl)-4-hydroxy-N-(4-(4-methylthiazol-5-yl)benzyl)pyrrolidine-2-carboxamide] are 2.7 nM and 8.96.
The corresponding values for `Cc1ncsc1-c1ccc(CNC(=O)[C@@H]2C[C@@H](O)CN2C(=O)[C@@H](NC(=O)c2ccc(CCCCCOc3cc(F)c([C@@H]4c5[nH]c6ccccc6c5C[C@@H](C)N4CC(C)(C)F)c(F)c3)cc2)C(C)(C)C)cc1` [Example 27, (2S,4R)-1-((S)-2-(4-(5-(3,5-Difluoro-4-((1R,3R)-2-(2-fluoro-2-methylpropyl)-3-methyl-2,3,4,9-tetrahydro-1H-pyrido[3,4-b]indol-1-yl)phenoxy)pentyl)benzamido)-3,3-dimethylbutanoyl)-4-hydroxy-N-(4-(4-methylthiazol-5-yl)benzyl)pyrrolidine-2-carboxamide] are 22 nM and 8.96.
Turning to `Cc1ncsc1-c1ccc(CNC(=O)[C@@H]2C[C@@H](O)CN2C(=O)[C@@H](NCc2ccc(COc3cc(F)c([C@@H]4c5[nH]c6ccccc6c5C[C@@H](C)N4CC(C)(C)F)c(F)c3)cc2)C(C)(C)C)cc1` [Example 35, (2S,4R)-1-((S)-2-((4-((3,5-difluoro-4-((1R,3R)-2-(2-fluoro-2-methylpropyl)-3-methyl-2,3,4,9-tetrahydro-1H-pyrido[3,4-b]indol-1-yl)phenoxy)methyl)benzyl)amino)-3,3-dimethylbutanoyl)-4-hydroxy-N-(4-(4-methylthiazol-5-yl)benzyl)pyrrolidine-2-carboxamide], the DC50 in test [1] came to 9.1 nM. Moreover, the pIC50 in test [2] was 9.00.
Regarding `Cc1ncsc1-c1ccc(CNC(=O)[C@@H]2C[C@@H](O)CN2C(=O)[C@@H](NC(=O)COCCCOCCOc2cc(F)c([C@@H]3c4[nH]c5ccccc5c4C[C@@H](C)N3CC(C)(C)F)c(F)c2)C(C)(C)C)cc1` [Example 25, (2S,4R)-1-((S)-2-(2-(3-(2-(3,5-Difluoro-4-((1R,3R)-2-(2-fluoro-2-methylpropyl)-3-methyl-2,3,4,9-tetrahydro-1H-pyrido[3,4-b]indol-1-yl)phenoxy)ethoxy)propoxy)acetamido)-3,3-dimethylbutanoyl)-4-hydroxy-N-(4-(4-methylthiazol-5-yl)benzyl)pyrrolidine-2-carboxamide], the “ER degradation ≥ 90% at 0.3 μM” value in test [1] is recorded as “••”. Besides, the negative logarithm of the IC50 (pIC50) in test [2] is 9.30.

The values above are taken from patent publication US10519152B2, “Compounds and their use in treating cancer” (AstraZeneca AB, priority 2017, dated 2019).
